# Reference: patent EP2949339A1, “Agonist of CD1c-restricted T cells and uses thereof” (Ospedale San Raffaele S.r.l., priority 2014, dated 2015)
# Legend:
# [1] = tested on: CD1c self-reactive T cells; assay: T cell activation assay with lipid-pulsed CD1c+ APCs (GM-CSF and/or IFN-γ release, ELISA); format: cell-based, human; conditions: same T cells; data not shown
# Experimental: T cell activation assays were performed by co-culturing the indicated numbers of target cells (5x10^4/well unless otherwise indicated) with T cells (5x10^4/well) in 200µl volume in duplicate or triplicate cultures. In some experiments, mouse anti-CD1c (L161, Abcam) or mouse IgG1 isotype control mAbs were added and incubated for 30 min prior to the addition of T cells. Supernatants were collected after 24-48 hours and cytokines released by T cells (GM-CSF and/or IFN-γ) were measured by ELISA. In assays using fractionated lipids, THP1-CD1c cells (5x10^4/well) were fixed with 0.05% glutaraldehyde for 20 s and used as APCs. Fold change in cytokine release was calculated using the following formula: GM-CSF release with lipid pulsed APC / GM-CSF release with un-pulsed APC. In some experiments, normal B cells purified from PBMCs (5x10^4/well) were used as APCs without prior fixation. APCs were pulsed with lipids for 4 hours at the indicated dilutions before addition of T cells.
# [2] = tested on: CD1c self-reactive T cells; assay: sCD1c-plate-bound T cell activation assay; format: cell-based, human; conditions: CD1c self-reactive clones DN4.99, K34A27f; GM-CSF release; Fig. 1E, 3 C
# Experimental: sCD1c-plate-bound assays were performed using MaxiSorp plates (Nunc) coated with anti-BirA mAb (Nowbakht et al., 2005) to capture sCD1c and were then incubated with lipids for 6 hours. The wells were extensively washed before addition of T cells.
# Recombinant soluble human CD1c tagged with BirA peptide (sCD1c), was obtained and purified using techniques similar to those previously described (Garcia-Alles et al., 2006). The following primers were used to PCR amplify the extracellular domain of human CD1c: forward XhoI 5'- […] (SEQ ID No. 3) and reverse ClaI 5'-[…] (SEQ ID No. 4). sCD1c was purified from J558-transfected cell culture supernatants by affinity chromatography using anti-CD1c mAb (10C3, BD Pharmingen).
Substance,doses at which T cells were very weakly stimulated [1],stimulation of T cells by lipid presented by plastic-bound sCD1c [2]
lysophosphatidic acid [LPA],above 50 µg/ml,–
sulfatide,–,failed to stimulate
lysophosphatidylcholine [LPC],above 50 µg/ml,–
lysophosphatidylethanolamine [LPE],above 50 µg/ml,–
